Values joined by “and” are separate entries in the source; they are usually repeats but may differ in a detail not shown here. Identical values can stand only once.
Legend:
Assay in all cases: MIC, liquid medium test tube series dilution test
[1] = tested on: Staph. aureus 133; assay type: cell-based, Staphylococcus aureus; conditions: Staph. aureus 133, 24 hours, 37°C
Procedure: (§1) The chemotherapeutic activity of the new penicillins was tested in vivo and in vitro. The in vitro inhibition values (MIC = minimum inhibition concentration (see Tables 1 and 2) were determined in a liquid medium in the test tube series dilution test, with readings being taken after 24 hours' incubation at 37°C. The MIC is indicated by the non-turbid test tube in the dilution series. A complete medium of the following composition was used as the nutrient medium:
(§2) The figures quoted in the Examples for the effectiveness against certain bacteria (units/ml) are minimum inhibitory concentrations in the test tube series dilution test after 24 hours' incubation.

[2] = tested on: Psdm. aerug. Bonn; assay type: cell-based, Pseudomonas aerug.; conditions: 24 hours, 37°C
Procedure: as §1, §2

[3] = tested on: Psdm. aerug. Walter; assay type: cell-based, Pseudomonas aerug.; conditions: 24 hours, 37°C
Procedure: as §1, §2

[4] = tested on: Proteus vulg. 3400; assay type: cell-based, Proteus vulgaris; conditions: Proteus vulg. 3400, 24 hours, 37°C
Procedure: as §1, §2

[5] = tested on: Proteus vulg. 1017; assay type: cell-based, Proteus vulgaris; conditions: Proteus vulg. 1017, 24 hours, 37°C
Procedure: as §1, §2

[6] = tested on: E. coli C 165; assay type: cell-based; conditions: E. coli C 165, 24 hours, 37°C
Procedure: as §1, §2

[7] = tested on: Klebsiella 63; assay type: cell-based; conditions: Klebsiella 63, 24 hours, 37°C
Procedure: as §1, §2

[8] = tested on: E. coli A 261; assay type: cell-based; conditions: E. coli A 261, 24 hours, 37°C
Procedure: as §1, §2

[9] = tested on: E. coli 183/58; assay type: cell-based; conditions: E. coli 183/58, 24 hours, 37°C
Procedure: as §1, §2

[10] = tested on: E. coli 14; assay type: cell-based; conditions: E. coli 14, 24 hours, 37°C
Procedure: as §1, §2

[11] = tested on: Klebsiella K 10; assay type: cell-based; conditions: Klebsiella K 10, 24 hours, 37°C
Procedure: as §1, §2

[12] = tested on: Streptoc. faec. ATCC 9790; assay type: cell-based; conditions: Strep. faec. (Enterococcus) ATCC 9790, 24 hours, 37°C
Procedure: as §1, §2

Structure (SMILES) | MIC [1] | MIC [2] | MIC [3] | MIC [4] | MIC [5] | MIC [6] | MIC [7] | MIC [8] | MIC [9] | MIC [10] | MIC [11] | MIC [12] | also measured
CN(C(=O)CCC(F)(F)F)C(=O)N[C@@H](C(=O)N[C@@H]1C(=O)N2[C@@H]1SC(C)(C)[C@@H]2C(=O)O)c1ccccc1 [Example 69, Sodium D(-)-α-(3-γ-trifluorobutyryl-3-methyl-ureido)-benzylpenicillin] | < 0.78 units/ml | 12.5 units/ml | 100 units/ml | 25 units/ml | 12.5 units/ml | 6.25 units/ml | 12.5 units/ml and 25 units/ml | 400 units/ml | 3.12 units/ml | 1.56 units/ml | 50 units/ml | 100 units/ml | –
CN(C(=O)N[C@@H](C(=O)N[C@@H]1C(=O)N2[C@@H]1SC(C)(C)[C@@H]2C(=O)O)c1ccccc1)C(=O)c1cccs1 [Example 37, Sodium D(-)-α-[3-(2-thenoyl)-3-methyl-ureido]-benzylpenicillin] | < 0.8 units/ml | 4-20 units/ml | 4-20 units/ml | 4-20 units/ml | 4-20 units/ml | 0.8-4 units/ml | 4-20 units/ml | > 500 units/ml | 0.8-4 units/ml | < 0.8 units/ml | 20-100 units/ml | 20-100 units/ml | –
CC1(C)S[C@@H]2[C@H](NC(=O)[C@H](NC(=O)N(CCCl)C(=O)CCC(Cl)(Cl)Cl)c3ccccc3)C(=O)N2[C@H]1C(=O)O [Example 72, Sodium D(-)-α-(3-γ-trichlorobutyryl-3-β-chloroethyl-ureido)-benzylpenicillin] | < 0.78 units/ml | 50 units/ml | 400 units/ml | 200 units/ml | 50 units/ml | 25 units/ml | 50 units/ml | 400 units/ml | 12.5 units/ml | 6.25 units/ml | 100 units/ml | 100 units/ml | –
C=CCN(C(=O)NC(C(=O)N[C@@H]1C(=O)N2[C@@H]1SC(C)(C)[C@@H]2C(=O)O)c1c(Cl)cccc1Cl)C(=O)c1ccccc1 (stereo partly drawn) [Example 15, Sodium D,L-α-(3-benzoyl-3-allyl-ureido)-2,6-dichlorobenzylpenicillin] | 0.8-4 units/ml | > 500 units/ml | > 500 units/ml | > 500 units/ml | > 500 units/ml | 100-500 units/ml | > 500 units/ml | > 500 units/ml | 100-500 units/ml | 20-100 units/ml | > 500 units/ml | > 500 units/ml | –
Cc1ccc(C(NC(=O)N(C)C(=O)c2ccccc2)C(=O)N[C@@H]2C(=O)N3[C@@H]2SC(C)(C)[C@@H]3C(=O)O)cc1 (stereo partly drawn) [Example 4, Sodium D,L-α-(3-benzoyl-3-methyl-ureido)-p-methylbenzyl-penicillin] | – | 20-100 units/ml | 20-100 units/ml | 4-20 units/ml | 4-20 units/ml | 4-20 units/ml | 20-100 units/ml | 100-500 units/ml | 4-20 units/ml | 0.8-4 units/ml | 20-100 units/ml | 100-500 units/ml | –
COC(=O)N(C)C(=O)N[C@@H](C(=O)N[C@@H]1C(=O)N2[C@@H]1SC(C)(C)[C@@H]2C(=O)O)c1ccccc1 [Example 96, Sodium D(-)-α-(3-methoxycarbonyl-3-methyl-ureido)-benzylpenicillin] | 1.56 units/ml | 25 units/ml | 25 units/ml | 50 units/ml | 50 units/ml | 12.5 units/ml | 200 units/ml | – | 25 units/ml | 6.25 units/ml | 200 units/ml | 25 units/ml | MIC ([1]; listed as (B) of Example 10): 1.56 units/ml; MIC ([2]; listed as (B) of Example 10): 25 units/ml; MIC ([3]; listed as (B) of Example 10): 25 units/ml; MIC ([7]; listed as (B) of Example 10): 200 units/ml; MIC ([9]; listed as (B) of Example 10): 25 units/ml; MIC ([10]; listed as (B) of Example 10): 6.25 units/ml; MIC ([11]; listed as (B) of Example 10): 200 units/ml
Cc1noc(C)c1C(=O)N(C)C(=O)N[C@@H](C(=O)N[C@@H]1C(=O)N2[C@@H]1SC(C)(C)[C@@H]2C(=O)O)c1ccccc1 [Example 76] | < 0.8 units/ml | – | – | – | – | – | – | – | ~ 4 units/ml | – | – | – | –
CC1(C)S[C@@H]2[C@H](NC(=O)C(NC(=O)N3CCNC3=O)c3ccc(Cl)cc3)C(=O)N2[C@H]1C(=O)O (stereo partly drawn) [Example 48 A, Sodium α-[(imidazolidin-2-on-1-yl)-carbonylamino]-p-chlorobenzylpenicillin] | – | – | – | – | – | – | 50 units/ml | – | – | – | 100 units/ml | – | MIC ([2]; listed as 48 A): 25 units/ml; MIC ([4]; listed as 48 A): 50 units/ml; MIC ([5]; listed as 48 A): 25 units/ml; MIC ([6]; listed as 48 A): 12,5 units/ml; MIC ([12]; listed as 48 A): 25 units/ml

Now from value to compound, other results behind:

MIC [1] | MIC [2] | MIC [3] | MIC [4] | MIC [5] | MIC [6] | MIC [7] | MIC [8] | MIC [9] | MIC [10] | MIC [11] | MIC [12] | Structure (SMILES) | also measured
< 0.8 units/ml | 25 units/ml | 12.5 units/ml | 12.5 units/ml | 3.1 units/ml | 3.1 units/ml | 25 units/ml | 50 units/ml | 1.6 units/ml | 0.8 units/ml | 12.5 units/ml | 25 units/ml | CN(C(=O)N[C@@H](C(=O)N[C@@H]1C(=O)N2[C@@H]1SC(C)(C)[C@@H]2C(=O)O)c1ccccc1)C(=O)c1ccc(Cl)cc1Cl [Example 142, Sodium D(-)-α-(3-[2,4-dichlorobenzoyl]-3-methyl-ureido)-benzylpenicillin] | –
– | 25 units/ml | 50 units/ml | 25 units/ml | 25 units/ml | 25 units/ml | 50 units/ml | – | 6.25 units/ml | 6.25 units/ml | 400 units/ml | – | CC(C)OC(=O)N(C)C(=O)N[C@@H](C(=O)N[C@@H]1C(=O)N2[C@@H]1SC(C)(C)[C@@H]2C(=O)O)c1ccccc1 [Example 97, Sodium D(-)-α-(3-i-propoxycarbonyl-3-methyl-ureido)-benzylpenicillin] | MIC ([2]; listed as (B) of Example 11): 25 units/ml; MIC ([3]; listed as (B) of Example 11): 50 units/ml; MIC ([6]; listed as (B) of Example 11): 25 units/ml; MIC ([9]; listed as (B) of Example 11): 6.25 units/ml; MIC ([10]; listed as (B) of Example 11): 6.25 units/ml
– | 12.5 units/ml | 6.25 units/ml | 3.1 units/ml | 3.1 units/ml | 3.1 units/ml | 12.5 units/ml | 50 units/ml | 1.6 units/ml | 0.8 units/ml | 6.25 units/ml | – | CN(C(=O)N[C@@H](C(=O)N[C@@H]1C(=O)N2[C@@H]1SC(C)(C)[C@@H]2C(=O)O)c1ccccc1)C(=O)c1c(Cl)cccc1Cl [Example 141, Sodium D(-)-α-(3, o,o'-dichlorobenzoyl-3-methyl-ureido)-benzyl-penicillin] | –
– | 25 units/ml | – | 50 units/ml | – | – | – | – | – | 6.25 units/ml | – | – | CC1(C)S[C@@H]2[C@H](NC(=O)[C@H](NC(=O)NC(=O)c3ccccc3)c3ccccc3)C(=O)N2[C@H]1C(=O)O [sodium D(-)-α-(3-benzoylureido)benzylpenicillin, reference compound] | –
< 0.8 units/ml | 0.8-4 units/ml | 20-100 units/ml | – | 20-100 units/ml | 4-20 units/ml | 100-500 units/ml | > 500 units/ml | – | – | – | ~ 20 units/ml | CCN(C(=O)N[C@@H](C(=O)N[C@@H]1C(=O)N2[C@@H]1SC(C)(C)[C@@H]2C(=O)O)c1ccccc1)C(=O)c1ccc(OC)c([N+](=O)[O-])c1 [Example 108, Sodium D(-)-α-(3-[3-nitro-4-methoxy-benzoyl]-3-ethyl-ureido)benzylpenicillin] | –
